# Counter-ions that a name gives are not always drawn.
# Biological target: Human immunodeficiency virus type 1 integrase (Human immunodeficiency virus 1, UniProt Q7ZJM1)
# Test: Inhibition of HIV1 recombinant integrase
# Sequence of Human immunodeficiency virus type 1 integrase (Q7ZJM1 whole entry): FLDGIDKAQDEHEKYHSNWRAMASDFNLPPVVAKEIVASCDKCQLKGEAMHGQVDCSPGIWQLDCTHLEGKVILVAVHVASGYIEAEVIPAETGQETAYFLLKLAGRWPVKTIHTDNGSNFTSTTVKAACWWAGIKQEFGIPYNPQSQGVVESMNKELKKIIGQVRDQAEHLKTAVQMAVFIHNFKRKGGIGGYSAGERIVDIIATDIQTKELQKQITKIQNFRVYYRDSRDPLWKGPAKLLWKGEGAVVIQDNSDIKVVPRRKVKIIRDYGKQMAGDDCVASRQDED
row,IC50,SMILES
1,> 155 µM,OCC(O)C#CC#CCCCCCCC#C/C=C\Br (stereo not drawn) [DIPLYNE B]
2,74.4 µM,O=S(=O)(O)OCC(O)C#CC#CCCCCCCC#C/C=C/Br (stereo not drawn)
3,> 156 µM,OCC(O)C#CC#CCCCC/C=C/C#C/C=C/Br (stereo not drawn) [DIPLYNE E]
4,> 157 µM,OCC(O)C#CC#CCCCCC#CC#C/C=C/Br (stereo not drawn) [DIPLYNE D]
5,> 153 µM,OCC(O)C#CC#CCCCCCCCC/C=C/Br (stereo not drawn) [DIPLYNE C]
6,78.3 µM,O=S(=O)(O)OCCC#CC#CCCCCC#CC#C/C=C/Br
7,73.7 µM,O=S(=O)(O)OCC(O)C#CC#CCCCCCCCC/C=C/Br (stereo not drawn) [DIPLYNE C SULFATE]
8,> 155 µM,OCC(O)C#CC#CCCCCCCC#C/C=C/Br (stereo not drawn) [DIPLYNE A]

# — ChEMBL document CHEMBL1150044, “Brominated polyacetylenes from the Philippines sponge Diplastrella sp” (J Nat Prod, 2003)
